Assay results: ChEMBL document CHEMBL1201862, “PubChem BioAssay data set” (2004)
Calls of active or inactive are those of the source.

Assays:
[1] = target: T1, Long-chain-fatty-acid--AMP ligase FadD28 (Mycobacterium tuberculosis, UniProt P9WQ59); experiment: Fluorescence polarization aasay to screen for inhibitors that compete for the binding of FadD28 to a bisubstrate Measured in Biochemical System Using Plate Reader - 2147-01_Inhibitor_Dose_CherryPick_Activity.; format: functional, Mycobacterium tuberculosis H37Rv
T1 sequence (P9WQ59 whole entry): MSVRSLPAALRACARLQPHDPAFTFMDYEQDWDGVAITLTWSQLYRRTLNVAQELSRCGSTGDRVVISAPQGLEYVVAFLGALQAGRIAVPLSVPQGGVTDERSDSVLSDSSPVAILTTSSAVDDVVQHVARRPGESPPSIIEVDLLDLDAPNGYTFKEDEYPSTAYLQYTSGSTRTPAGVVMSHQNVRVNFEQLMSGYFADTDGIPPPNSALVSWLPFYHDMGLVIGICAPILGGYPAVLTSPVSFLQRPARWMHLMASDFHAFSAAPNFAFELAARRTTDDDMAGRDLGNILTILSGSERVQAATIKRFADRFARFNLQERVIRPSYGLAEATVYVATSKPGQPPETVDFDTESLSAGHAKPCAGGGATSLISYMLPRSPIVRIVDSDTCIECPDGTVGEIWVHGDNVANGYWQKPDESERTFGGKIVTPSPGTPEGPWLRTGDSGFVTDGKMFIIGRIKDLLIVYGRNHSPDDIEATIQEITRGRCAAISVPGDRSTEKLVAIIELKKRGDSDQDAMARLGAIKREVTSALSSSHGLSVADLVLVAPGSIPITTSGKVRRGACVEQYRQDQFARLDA

[2] = target: T2, DNA repair protein RAD52 homolog (Homo sapiens, UniProt P43351); format: functional, biochemical
T2 sequence (P43351 whole entry): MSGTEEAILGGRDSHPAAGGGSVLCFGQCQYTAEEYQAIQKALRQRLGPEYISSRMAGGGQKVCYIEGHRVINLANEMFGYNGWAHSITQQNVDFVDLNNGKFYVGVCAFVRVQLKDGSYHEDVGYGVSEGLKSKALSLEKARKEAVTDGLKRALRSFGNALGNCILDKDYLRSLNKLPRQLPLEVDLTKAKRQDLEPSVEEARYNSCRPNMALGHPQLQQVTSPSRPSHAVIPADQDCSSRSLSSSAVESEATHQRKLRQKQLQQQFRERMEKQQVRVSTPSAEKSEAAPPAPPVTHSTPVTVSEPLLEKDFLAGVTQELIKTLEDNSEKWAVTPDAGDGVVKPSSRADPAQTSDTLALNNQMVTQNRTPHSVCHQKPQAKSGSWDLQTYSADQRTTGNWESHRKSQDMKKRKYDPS

[3] = target: T3, Endoribonuclease toxin MazF (Escherichia coli K-12, UniProt P0AE70); experiment: substrate-only fluorescence increase artefacts – biochemical, single-stranded RNase substrate, counter-screen for MazEF activator project, dose response (AID 588502); format: functional
T3 sequence (P0AE70 whole entry): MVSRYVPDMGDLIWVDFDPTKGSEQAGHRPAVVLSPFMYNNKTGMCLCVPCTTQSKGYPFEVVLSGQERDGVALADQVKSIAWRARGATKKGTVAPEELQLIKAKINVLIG

[4] = target: Cytochrome P450 2C19 (Homo sapiens, UniProt P33261); experiment: Cytochrome panel assay with activity outcomes. Panel member name: p450-cyp2c19 Compounds with AC50 equal or less than 10 uM are considered active; format: functional; conditions: read-out: AC50
Cytochrome P450 2C19, sequence (P33261 whole entry): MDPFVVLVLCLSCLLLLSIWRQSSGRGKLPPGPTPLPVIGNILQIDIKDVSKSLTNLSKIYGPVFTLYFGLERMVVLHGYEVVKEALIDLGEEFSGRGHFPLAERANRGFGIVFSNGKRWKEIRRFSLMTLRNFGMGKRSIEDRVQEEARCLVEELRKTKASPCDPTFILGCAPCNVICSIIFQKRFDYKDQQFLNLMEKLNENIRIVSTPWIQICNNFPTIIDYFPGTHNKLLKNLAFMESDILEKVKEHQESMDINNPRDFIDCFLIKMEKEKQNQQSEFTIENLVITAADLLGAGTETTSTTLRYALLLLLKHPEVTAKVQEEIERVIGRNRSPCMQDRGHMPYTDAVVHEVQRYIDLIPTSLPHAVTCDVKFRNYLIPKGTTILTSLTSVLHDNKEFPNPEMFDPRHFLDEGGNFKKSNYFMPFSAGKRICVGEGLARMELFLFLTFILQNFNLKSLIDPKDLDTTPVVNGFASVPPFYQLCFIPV

[5] = target: T3, Endoribonuclease toxin MazF; experiment: activation of MazEF endoribonuclease cleavage – biochemical, fluorescence, single-stranded RNA substrate, uHTS hits, dose response (AID 588481); format: functional

Compound	AC50 [1]	AC50 [2]	EC50 [3]	AC50 [4]	EC50 [5]
CN(c1ccc(C(=O)NCCSCc2ccccc2)cc1)S(=O)(=O)c1ccccc1	> 100 µM (inactive)	–	–	–	–
CN(C)CCCn1c2c3ccccc3ccc2c2oc(=O)c3ccccc3c21	–	< 0.681 µM (active)	> 99 µM (inactive)	0.794 µM (inconclusive)	> 99 µM (inactive)
Cc1ccc(N/C(C(Cl)=C(Cl)Cl)=C(/Cl)[N+](=O)[O-])c(C)c1	> 100 µM (inactive)	–	–	–	–
